# From patent US20080262044A1, “Pesticidal Mixtures” (Syngenta Participations AG, priority 2005, published 2008)
# What was measured:
# [1] = test system: Spodoptera littoralis L2; experiment: Action against Spodoptera littoralis L2 (sprayed cotton leaves, petri dish); format: in vivo; conditions: 96 h
# Protocol: The following day leaves were placed in petri dishes containing a moist filter paper and 10 L2 larvae placed on the leaves. Petri dishes were covered with gauze and closed with a lid and left at a temperature of 25° C., 40-60% relative humidity and 16L:8D conditions. Assessment of dead and alife larvae was performed after four days. (30 insects assessed per treatment).
# [2] = test system: Aphis craccivora (nymphs); experiment: Action against Aphis craccivora (nymphs), bean leaf disks; format: in vivo; conditions: foliar, 96 h, Table B4, Pyroquilon 1 ppm, WP 25, nymphs on bean leaf disks, after four days
# Protocol: Fourteen day old bean plants (Vicia faba var. Wittkiens) were sprayed with 60 ml sample solution. The following day 3.5 cm leaf disks were cut and placed in petri dishes containing 2 ml agar (2%) and 5-10 adult aphids placed on the leaves. Petri dishes were covered with gauze and closed with a lid and placed up-side down. The following day all adult aphids were removed and only nymphs left on the leaf at a temperature of 20° C., 60% relative humidity and 16L:8D conditions. Assessment of dead and alife aphids performed after four days. (3 replicates per treatment).
compound,measurement,setting,value
"O=C1CCc2cccc3c2N1CC3 [Pyroquilon, pyroquilon]",mortality at 1 ppm,"[1]; Table B1, Pyroquilon 1 ppm, WP 25, L2 larvae on cotton leaves, after four days",6.7%
same,mortality at 10 ppm,"[1]; Table B3, Pyroquilon 10 ppm, WP 25, after four days",6.7%
same,mortality at 1 ppm,[2],3.3%
